Several values for one entry are separate records, joined by “and”; a condition that tells them apart may be missing. Identical values can stand only once.

Usually melting point stands for the temperature of the solid-liquid transition. `CCCCCC=O` [hexanaldehyde] came in with a melting point of -56 °C.

`ClC1=C(Cl)[C@]2(Cl)[C@H]3[C@H]([C@@H]4C=C[C@H]3C4)[C@@]1(Cl)C2(Cl)Cl` came in with a melting point of 104 °C. For `CC(C)(C)C1CCC(=O)CC1` [4-tert-butylcyclohexanone] the value was 49 °C; for `Oc1ccc2ccccc2c1Br` [1-bromo-2-naphthol], 79 °C; for `CS(=O)(=O)Cl` [methanesulfonyl chloride], -33 °C. With `O=Cc1cccnc1` [pyridine-3-carboxaldehyde] the figure was 8 °C; with `COC(=O)c1cc(C)n(CN(Cn2nc(C(=O)OC)cc2C)c2ccccc2)n1`, 125 °C. For `O=S(=O)(Cl)c1ccc(Cl)c(Cl)c1Cl` [2,3,4-trichlorobenzenesulfonyl chloride] the value was 63 °C; for `Oc1cc(Cl)c(Cl)cc1Cl` [2,4,5-trichlorophenol], 69 °C and 67 °C and 68 °C; for `Oc1ccccc1-c1ccccc1O` [2,2'-dihydroxybiphenyl], 109 °C. Take `Nc1c([N+](=O)[O-])cccc1[N+](=O)[O-]` [2,6-dinitroaniline]: the melting point came to 133 °C. The molecule `Oc1ccc2ccccc2c1` [2-naphthol] came in with a melting point of 122 °C.

`CCCc1cc(O)nc(S)n1` [6-Propyl-2-sulfanylpyrimidin-4-ol] came in with a melting point of 220 °C.

In turn, `Cn1c(=O)c2c(ncn2C)n(C)c1=O` [caffeine] yielded a melting point of 238 °C. Consider `CCOCCO` [2-ethoxyethanol], for which the melting point is -90 °C. The molecule `c1cc2ccc1CCc1ccc(cc1)CC2` [[2.2]paracyclophane] showed a melting point of 286 °C. As for `CN(C)CCC=C1c2ccccc2COc2ccccc21` [Doxepin], the melting point was 185 °C.

Molecule `CCCCCCCC/C=C/CCCCCCCC(=O)OC` [methyl elaidate] displayed a melting point of 10 °C. The molecule `O=C1NC(=O)c2ccccc21` [phthalimide] yielded a melting point of 234 °C. On to `CN1CCN(C2CCNCC2)CC1` [1-methyl-4-(4-piperidinyl)piperazine], for which the melting point was 55 °C. The molecule `Cc1noc(NS(=O)(=O)c2ccc(N)cc2)c1C` [4-Amino-N-(3,4-dimethyl-1,2-oxazol-5-yl)benzenesulfonamide] displayed a melting point of 196 °C.

`O=C(O)c1ccccc1OP(=O)(O)O` [2-carboxyphenyl phosphate]: the melting point was 164 °C. With `CCCCCN` [1-pentylamine] the figure was -55 °C; with `CCCOC(=O)c1ccc(O)cc1` [propylparaben], 97 °C. For `C=CCCC` [1-pentene] the value was -162 °C; for `CCc1ccc2c(c1)C(=O)c1ccccc1C2=O` [2-ethylanthraquinone], 109 °C; for `COc1cccc(C(N)=O)c1` [3-methoxybenzamide], 133 °C. For `CCO` [ethanol], the melting point is -114 °C. As to `CCCCOCC` [1-Ethoxybutane], the melting point is -103 °C.

`C[C@@H](O)[C@@H](N)C(=O)O` [D-allo-threonine] registered a melting point of 278 °C. `CC(C)(C)CO` [neopentyl alcohol] returned a melting point of 54 °C. `O=C(CCl)Nc1ccccc1[N+](=O)[O-]` [2-chloro-2'-nitroacetanilide] returned a melting point of 88 °C.

`NCc1ccccc1` [Benzylamine] showed a melting point of 10 °C.

With `OCCCO` [1,3-propanediol], the melting point is -26 °C.

Turning to `COC(=O)c1ccc(C(=O)OC)nc1` [dimethyl pyridine-2,5-dicarboxylate], the melting point came out at 162 °C. For the molecule `CCOC(=O)CSCCC1NC(C(=O)O)CS1` (stereo unspecified) [letosteine], the melting point stood at 142 °C. Molecule `NS(N)(=O)=O` [sulfamide] had a melting point of 92 °C.

On to `C1CC1` [cyclopropane], for which the melting point is -127 °C.

Molecule `CCCOC(=O)c1ccc(O)cc1` [propyl 4-hydroxybenzoate] registered a melting point of 96 °C. For `OCCN(CCO)CCO` [triethanolamine] the value was 20 °C; for `Clc1cccc2c1=NC(c1ccccc1)C=2c1ccccc1` (stereo unspecified) [7-chloro-2,3-diphenyl-1H-indole], 98 °C. On to `CCCCCCCCCCCCCC(=O)CCCCCCCCCCCCC` [14-heptacosanone], for which the melting point is 78 °C. Consider `Oc1ccccc1Cl` [2-chlorophenol], for which the melting point stood at 8 °C. With `COC1(CBr)OC(COC(=O)c2ccc(C)cc2)C(OC(=O)c2ccc(C)cc2)C1OC(=O)c1ccc(C)cc1` (stereo unspecified) the figure was 149 °C. Molecule `CCC(C)(C)C(=O)O[C@H]1C[C@@H](C)C=C2C=C[C@H](C)[C@H](CC[C@@H]3C[C@@H](O)CC(=O)O3)[C@H]21` [Simvastatin] showed a melting point of 136 °C. Molecule `COc1ccc(CC(=O)O)cc1` [4-methoxyphenylacetic acid] displayed a melting point of 87 °C. With `SC(c1ccccc1)(c1ccccc1)c1ccccc1` [triphenylmethyl mercaptan] the figure was 106 °C. In the case of `CCCCCCCCCCCO` [1-undecanol], the melting point was 16 °C and 14 °C.

Consider `CC(=O)Oc1ccc([N+](=O)[O-])cc1` [p-nitrophenyl_acetate], for which the melting point amounted to 78 °C. For `C/C=C\CC` [cis-2-pentene] the value was -151 °C; for `OCCCCO` [1,4-butanediol], 20 °C.

The molecule `O=C(Cl)c1cc([N+](=O)[O-])cc([N+](=O)[O-])c1` [3,5-dinitrobenzoyl chloride] yielded a melting point of 67 °C. For `O=C(O)/C=C/c1ccccc1Br` [trans-2-bromocinnamic acid] the value was 218 °C; for `CC(C)(C)c1cc(C(=S)NC2CCCCC2)cc(C(C)(C)C)c1O` [3,5-Di-tert-butyl-N-cyclohexyl-4-hydroxy-thiobenzamide], 228 °C.

For the molecule `c1ccc(C/C(=N\Nc2ccccc2)c2ccc3ccccc3c2)cc1`, the melting point came to 166 °C. Turning to `CCCCCCCCSCCCCCCCC` [di-n-octyl sulfide], the melting point stood at 1 °C. With `O=C1COC(c2ccc(C(F)(F)F)cc2)CN1` (stereo unspecified) [flumetramide] the figure was 116 °C; with `CC(=O)OCC1OC(OC2C(COC(C)=O)OC(OC(C)=O)C(OC(C)=O)C2OC(C)=O)C(OC(C)=O)C(OC(C)=O)C1OC(C)=O` (stereo unspecified), 138 °C. With `CCOC(=O)NCCOc1ccc(Oc2ccccc2)cc1` [fenoxycarb] the figure was 53.5 °C.

`CC1C=CC=CCCC=CC=CC=CC=CC(OC2O[C@H](C)[C@@H](O)[C@H](N)[C@@H]2O)CC(O)C(C(=O)O)C(O)CC(=O)CC(O)C(O)CCC(O)CC(O)CC(O)CC(=O)OC(C)C(C)C1O` (stereo partly specified) [Nystatin]: the melting point is 160 °C. With `c1ccc(Oc2cccc(-c3nnn[nH]3)c2)cc1` [5-(3-phenoxyphenyl)-1h-tetrazole] the figure was 153 °C; with `C=CC` [1-propene], -185 °C; with `C(=Cc1ccccc1)Cc1ccccc1` [benzene, 1,1'-(1-propene-1,3-diyl)bis-], 155 °C. With `CCCCCCCOc1ccc(C(=O)O)cc1` [4-n-heptyloxybenzoic acid] the figure was 93 °C. Take `C/C=C/CCC` [trans-2-hexene]: the melting point is -133 °C. With `C[Si](C)(C)N[Si](C)(C)C` [hexamethyldisilazane] the figure was -78 °C; with `O=C1NN(c2ccccc2)C(=O)C1c1ccccc1` (stereo unspecified) [phenopyrazone], 233 °C. Take `CCOC(C)=NOc1ccc([N+](=O)[O-])cc1[N+](=O)[O-]` [ethyl n-(2,4-dinitrophenoxy)acetimidate]: the melting point was determined as 112 °C. With `[O-][P+](c1ccccc1)(c1ccccc1)C1C=C(c2ccccc2)C=C(c2ccccc2)O1` (stereo unspecified) [(4,6-diphenyl-2H-pyran-2-yl)(diphenyl)phosphane oxide] the figure was 152 °C.

In turn, `[O-][n+]1cccc(Br)c1` [3-bromopyridine n-oxide] registered a melting point of 35 °C. Turning to `N#CCC(N)=O` [cyanoacetamide], the melting point was 120 °C.

In turn, `Cc1c(N)cccc1N` [2,6-diaminotoluene] displayed a melting point of 105 °C. With `Cc1cccc(Nc2ccccc2C(=O)O)c1C` [mefenamic acid] the figure was 230 °C. For `CC(C)CCC[C@@H](C)[C@H]1CC[C@H]2[C@@H]3CCC4=CC(=O)CC[C@]4(C)[C@H]3CC[C@]12C` [4-cholesten-3-one] the value was 80 °C; for `O=Cc1ccc(O)cc1O` [2,4-dihydroxybenzaldehyde], 136 °C. For `OC1CCCCC1` [cyclohexanol] the value was 25.9 °C; for `CC(=O)NS(=O)(=O)c1ccc(N)cc1` [N-[(4-Aminophenyl)sulfonyl]acetamide], 182 °C; for `CCc1ccc(C)nc1N` [2-amino-3-ethyl-6-methylpyridine], 47 °C. The molecule `CCCCCCCCI` [1-iodooctane] came in with a melting point of -44 °C. With `NC(=O)N1c2ccccc2C=Cc2ccccc21` [carbamazepine] the figure was 192 °C. With `Cc1ccc(N)c(Br)c1` [2-bromo-4-methylaniline] the figure was 15 °C; with `CC1(C)[C@@H]2CC[C@@]1(C)C(=O)C2` [camphor], 180 °C; with `O=C(O)C(Cl)Cl` [Dichloroacetic acid], 9.7 °C. In turn, `Cc1ccc(C)c(N)c1` [2,5-dimethylaniline] gave a melting point of 15 °C. For `C[C@H](N)C(=O)N[C@@H](C)C(=O)O` [L-Alanyl-L-alanine] the value was 280 °C. For `COC(=O)C1C(=O)C=C(O)CC1C` (stereo unspecified) [methyl 4-hydroxy-6-methyl-2-oxo-3-cyclohexene-1-carboxylate] the value was 123 °C; for `CCN(C)C` [N,N-Dimethylethanamine], -140 °C.

Molecule `O=C(C(=O)c1cccs1)c1cccs1` [2,2'-thenil] registered a melting point of 83 °C.

`CCCCCCC(=O)O` [heptanoic acid] gave a melting point of -8 °C.

In the case of `COC(=O)c1ccc2c(c1)CC1(CCC(c3ccc(C(C)(C)C)cc3)CC1)C2` (stereo unspecified), the melting point was 117 °C. Regarding `NS(=O)(=O)c1ccc(F)c2nonc12` [7-fluorobenzofurazan-4-sulfonamide], the melting point is 144 °C.

For the origin of these results see the Bradley open melting point set (2014).
